23 molecules from PubChem BioAssay AID218 (DTP/NCI, 2004) can be followed below.

Structures are written as SMILES. Values joined by “and” are separate entries in the source; they are usually repeats but may differ in a detail not shown here. Equal values may be shown once.

In the test the test system is C57BL/6 mice, Adenocarcinoma 755 sc, tumor weight T/C. Kind of test: NCI In Vivo Anticancer Drug Screen. Data for tumor model Adenocarcinoma 755 (subcutaneous) in C57BL/6 mice. Conditions: endpoint: mean tumor weight, higher = larger tumour. As to the method:
The antitumor activity of compounds was measured in mice bearing transplantable tumors. Survival or tumor size were measured and the results are expressed as the measurement made in the treated group (T) divided by the measurement made in the vehicle treated control group (C). The tumor model used in this assay is Adenocarcinoma 755 (subcutaneous) in C57BL/6 mice

[1] abbreviates: dose: 6.25 mg/kg/injection, schedule: Q01DX011 (ip), vehicle: saline.
Where [2] appears, read: dose: 25.0 mg/kg/injection, schedule: Q01DX011 (ip), vehicle: saline.
Where [3] appears, read: dose: 50.0 mg/kg/injection, schedule: Q01DX011 (ip), vehicle: saline.
[4] abbreviates: dose: 150.0 mg/kg/injection, schedule: Q01DX011 (ip), vehicle: saline.
Setting [5] is: dose: 200.0 mg/kg/injection, schedule: Q01DX011 (ip), vehicle: saline.
[6] abbreviates: dose: 4.0 mg/kg/injection, schedule: Q01DX011 (ip), vehicle: carboxymethylcellulose (CMC).
Where [7] appears, read: dose: 10.0 mg/kg/injection, schedule: Q02DX006 (ip), vehicle: other.
Setting [8] is: dose: 100.0 mg/kg/injection, schedule: Q01DX011 (ip), vehicle: saline.
Setting [9] is: dose: 15.0 mg/kg/injection, schedule: Q01DX011 (ip), vehicle: saline.
[10] abbreviates: dose: 30.0 mg/kg/injection, schedule: Q01DX011 (ip), vehicle: saline.
[11] abbreviates: dose: 20.0 mg/kg/injection, schedule: Q01DX011 (ip), vehicle: saline.
Setting [12] is: dose: 40.0 mg/kg/injection, schedule: Q01DX011 (ip), vehicle: saline.

For orientation: T/C means the result in the treated group divided by that in the control group, in per cent.

As for `CCc1c(CC(=O)O)c2cc(C)ccc2n1Cc1ccc(Cl)cc1`, the T/C is, setting by setting: (dose: 1.56 mg/kg/injection, schedule: Q01DX011 (ip), vehicle: saline) 79 % of control; (dose: 3.13 mg/kg/injection, schedule: Q01DX011 (ip), vehicle: saline) 66 % of control; under setting [1], 109 % of control; under setting [2], 10 % of control; under setting [3], 22 % of control.
With `O=c1[nH]cnc2n[nH]nc12`, the T/C runs as follows: under setting [4], 55 % of control; under setting [5], 20 % of control.
Take `[I][Hg][CH2]C1OCCOC1[CH2][Hg][I]` (centres undefined): the T/C under setting [6] is 84 % of control; the T/C (dose: 8.0 mg/kg/injection, schedule: Q01DX011 (ip), vehicle: carboxymethylcellulose (CMC)) was 46 % of control; the T/C (dose: 16.0 mg/kg/injection, schedule: Q01DX011 (ip), vehicle: carboxymethylcellulose (CMC)) was 34 % of control; the T/C (dose: 32.0 mg/kg/injection, schedule: Q01DX011 (ip), vehicle: carboxymethylcellulose (CMC)) was 44 % of control.
Turning to `Clc1cc(N2CC2)nc(N2CC2)n1`, the T/C is, setting by setting: (dose: 5.0 mg/kg/injection, schedule: Q02DX006 (ip), vehicle: other) 79 % of control; (dose: 7.5 mg/kg/injection, schedule: Q02DX006 (ip), vehicle: other) 72 % of control; under setting [7], 18 % of control.
In the case of `C1CN1c1nc(N2CC2)nc(N2CC2)n1`, the T/C is, setting by setting: (dose: 0.1 mg/kg/injection, schedule: Q01DX011 (ip), vehicle: saline) 28 % of control; (dose: 0.11 mg/kg/injection, schedule: Q01DX011 (ip), vehicle: saline) 44 % of control; (dose: 0.13 mg/kg/injection, schedule: Q01DX011 (ip), vehicle: saline) 61 % of control; (dose: 0.15 mg/kg/injection, schedule: Q01DX011 (ip), vehicle: saline) 21 % of control; (dose: 0.2 mg/kg/injection, schedule: Q01DX011 (ip), vehicle: saline) 12 % of control; (dose: 0.25 mg/kg/injection, schedule: Q02DX006 (ip), vehicle: saline) 80 % of control. Besides, the T/C was 5 % of control (dose: 0.3 mg/kg/injection, schedule: Q01DX011 (ip), vehicle: saline); 19 % of control (dose: 0.5 mg/kg/injection, schedule: Q01DX011 (ip), vehicle: saline); 121 % of control (dose: 0.5 mg/kg/injection, schedule: Q02DX006 (ip), vehicle: saline).
Consider `O=C(O)CCCc1ccc(N(CCCl)CCCl)cc1`, for which the T/C was 73 % of control (dose: 1.0 mg/kg/injection, schedule: Q01DX011 (ip), vehicle: saline); 80 % of control (dose: 4.0 mg/kg/injection, schedule: Q01DX011 (ip), vehicle: saline); 51 % of control (dose: 8.0 mg/kg/injection, schedule: Q01DX011 (ip), vehicle: saline); 98 % of control (dose: 16.0 mg/kg/injection, schedule: Q01DX011 (ip), vehicle: saline).
As for `CCn1cnc2c(Cl)ncnc21`, the T/C was 29 % of control under setting [2], 10 % of control under setting [3] and 1 % of control under setting [8].
Take `CS(=O)(=O)OCCCCCCCCCOS(C)(=O)=O`: the T/C was 64 % of control (dose: 0.25 mg/kg/injection, schedule: Q01DX011 (ip), vehicle: carboxymethylcellulose (CMC)); 93 % of control (dose: 0.5 mg/kg/injection, schedule: Q01DX011 (ip), vehicle: carboxymethylcellulose (CMC)); 162 % of control (dose: 1.0 mg/kg/injection, schedule: Q01DX011 (ip), vehicle: carboxymethylcellulose (CMC)); 95 % of control (dose: 2.0 mg/kg/injection, schedule: Q01DX011 (ip), vehicle: carboxymethylcellulose (CMC)); 84 % of control under setting [6].
Turning to `S=c1[nH]c(=S)c2[nH]cnc2[nH]1`, the T/C is, setting by setting: under setting [8], 13 % of control; under setting [5], 7 % of control.
Consider `CCCCn1cnc2c(SSc3ncnc4c3ncn4CCCC)ncnc21`, for which the T/C runs as follows: (dose: 3.75 mg/kg/injection, schedule: Q01DX011 (ip), vehicle: saline) 26 % of control; (dose: 7.5 mg/kg/injection, schedule: Q01DX011 (ip), vehicle: saline) 7 % of control; under setting [9], 7 % of control; under setting [10], 6 % of control.
Consider `CN(CC(=O)O)C(=N)N`, for which the T/C is, setting by setting: (dose: 250.0 mg/kg/injection, schedule: Q01DX011 (ip), vehicle: saline) 105 % of control; (dose: 500.0 mg/kg/injection, schedule: Q01DX011 (ip), vehicle: saline) 110 % of control; (dose: 1000.0 mg/kg/injection, schedule: Q01DX011 (ip), vehicle: saline) 57 % of control; (dose: 2000.0 mg/kg/injection, schedule: Q01DX011 (ip), vehicle: saline) 102 % of control.
In the case of `Oc1ccc2ccccc2c1N=Nc1ccc(F)cc1`, the T/C was 55 % of control under setting [1]; 45 % of control (dose: 12.5 mg/kg/injection, schedule: Q01DX011 (ip), vehicle: saline); 37 % of control under setting [2]; 30 % of control and 35 % of control under setting [3]; 28 % of control under setting [8]; 12 % of control under setting [5]. Besides, the T/C (dose: 400.0 mg/kg/injection, schedule: Q01DX011 (ip), vehicle: saline) was 28 % of control.
On to `O=C(O)CCCCC1NC(=O)CS1` (centres undefined), for which the T/C reads like this: (dose: 225.0 mg/kg/injection, schedule: Q02DX006 (ip), vehicle: water) 91 % of control; (dose: 275.0 mg/kg/injection, schedule: Q02DX006 (ip), vehicle: water) 101 % of control.
For `Nc1ncnc2[nH]ncc12`, the T/C was 28 % of control under setting [7]; 7 % of control and 22 % of control under setting [9]; 9 % of control under setting [11]; 16 % of control (dose: 20.0 mg/kg/injection, schedule: Q02DX006 (ip), vehicle: other); 4 % of control (dose: 40.0 mg/kg/injection, schedule: Q02DX006 (ip), vehicle: other).
In the case of `CCSCCC(N)C(=O)O` (centres undefined), the T/C under setting [3] is 113 % of control; the T/C (dose: 75.0 mg/kg/injection, schedule: Q02DX006 (ip), vehicle: other) was 67 % of control; the T/C under setting [8] was 67 % of control and 78 % of control; the T/C (dose: 100.0 mg/kg/injection, schedule: Q02DX006 (ip), vehicle: other) was 65 % of control; the T/C under setting [4] was 72 % of control.
Turning to `NC(=S)N/N=C/c1ccc([N+](=O)[O-])cc1`, the T/C reads like this: (dose: 75.0 mg/kg/injection, schedule: Q02DX006 (ip), vehicle: saline) 22 % of control; (dose: 100.0 mg/kg/injection, schedule: Q02DX006 (ip), vehicle: saline) 31 % of control.
As to `Nc1[nH]c(=O)nc2c1ncn2C1OC(CO)C(O)C1O` (centres undefined), the T/C is 100 % of control under setting [11], 42 % of control under setting [10] and 58 % of control under setting [12].
Regarding `Nc1[nH]c(=S)nc2nc[nH]c12`, the T/C reads like this: (dose: 5.0 mg/kg/injection, schedule: Q02DX006 (ip), vehicle: saline) 46 % of control; (dose: 6.0 mg/kg/injection, schedule: Q02DX006 (ip), vehicle: saline) 33 % of control; (dose: 8.0 mg/kg/injection, schedule: Q02DX006 (ip), vehicle: saline) 25 % of control.
On to `Cc1ccc(N2CCN(CCCN3CCN(c4ccc(Cl)cc4)CC3)CC2)cc1`, for which the T/C was 93 % of control (dose: 3.1 mg/kg/injection, schedule: Q01DX011 (ip), vehicle: carboxymethylcellulose (CMC)); 83 % of control (dose: 6.25 mg/kg/injection, schedule: Q01DX011 (ip), vehicle: carboxymethylcellulose (CMC)); 90 % of control (dose: 12.5 mg/kg/injection, schedule: Q01DX011 (ip), vehicle: carboxymethylcellulose (CMC)); 52 % of control (dose: 25.0 mg/kg/injection, schedule: Q01DX011 (ip), vehicle: carboxymethylcellulose (CMC)); 43 % of control (dose: 50.0 mg/kg/injection, schedule: Q01DX011 (ip), vehicle: carboxymethylcellulose (CMC)).
For `CCCNc1ncnc2[nH]ncc12`, the T/C is 62 % of control (dose: 10.0 mg/kg/injection, schedule: Q01DX011 (ip), vehicle: saline) and 39 % of control under setting [9].
`N/C(=N/N=C/c1ccccc1[N+](=O)[O-])N[N+](=O)[O-]`: the T/C is 95 % of control (dose: 150.0 mg/kg/injection, schedule: Q02DX006 (ip), vehicle: saline) and 76 % of control (dose: 200.0 mg/kg/injection, schedule: Q02DX006 (ip), vehicle: saline).
Consider `O=C(O)c1[nH]c(=O)[nH]c(=O)c1Br`, for which the T/C under setting [3] was 54 % of control.
For the molecule `CCN(CC)c1ncnc2[nH]ncc12`, the T/C is 25 % of control under setting [12] and 23 % of control under setting [3].
